What was measured:
[1] = target: T1, HSV-1 helicase-primase (UL5(K103A) helicase-primase holoenzyme) (Human herpesvirus 1, UniProt P10189+P10236, K103A); test: HSV-1 Helicase-primase DNA Primase Assay (incorporation of [3H]GTP into primers); assay type: biochemical
T1 construct: made in house; host or cells: recombinant baculovirus expression (insect cells, by own knowledge of the cited Dodson 1989 and Dracheva 1995 methods)
Text: i) HSV-1 Helicase-primase DNA Primase Assay
The HSV-1 helicase-primase enzyme used for primase assays was expressed and isolated as described (M. S. Dodson et al., J. Biol. Chem. 1989, 264, 20835; S. Dracheva et al. J. Biol. Chem. 1995, 270, 14148) except that the UL5-expressing baculovirus was changed to express UL5(K103A). The resulting altered enzyme contained no detectable helicase, DNA-dependent ATPase, or ATPase activity. However, DNA primase activity was increased over the wild type enzyme.
Assay: DNA primase activity was measured by the incorporation of [^3 H]GTP into newly synthesized primers by the UL5(K103A) helicase-primase holoenzyme. Assays were performed using as template the 50-mer single-stranded DNA oligonucleotide 5'-CTTCTTCGGT TCCGACTAC CCCTCCCGACTGCCTATGATGTTTATCCTTT G-3'OH (SEQ ID No. 1) derived from the preferred priming site on .phi.X174 single-stranded DNA [D. J. Teney et al., J. Biol. Chem. 1995, 270, 9129-9136]. The reaction mixtures (60 μl) contained […] pH 8.0, 5 mM magnesium chloride, 1 mM DTT, 0.01 % CHAPS, 100 μM each of ATP, GTP, CTP, 10 μM [biotin]UTP, 1 μCi [^3 H]GTP (specific activity 30.8 Ci/mmol), 1 μg of the 50-mer template and 45 μg/ml of the UL5(K103A)-altered helicase-primaseholoenzyme. The samples were incubated at 34° for 45 min in a circulating waterbath and reactions were quenched by the addition of 20 μl 0.5 M EDTA pH 8. Then, 50 μl of the reaction mixtures were transferred to Millipore filtration plates (MHVB N45, 0.45 μm) containing 40 μl of immobilized avidin beads (Pierce). After incubating 30 min at room temperature on a microplate shaker, the wells were washed five times with 300 μl wash buffer (50 mM 4-(2-hydroxyethyl)-1-piperazineethanesulfonic acid (HEPES) pH 7.5 and 0.5 M NaCl) and the filter plates were aspirated to dryness. The radioactivity in each well was counted using the Topcount® after adding 100 μl Microscint® 20 (Camberra-Packard Canada, Mississauga, Ontario, Canada) to each well.
In all cases, compounds were tested in three-fold serial dilutions and the results were expressed as percent inhibition as compared to control reactions without inhibitor. IC50 (i.e., inhibitor concentration that yielded 50% inhibition of enzyme activity) values were determined from dose-response curves using SAS software (SAS Institute, Cary, N.C., USA). A non-linear regression analysis based on the Hill equation, M. Dixon and E.C. Webb Enzymes, Academic Press: New York, N.Y., USA, 1979, was applied to the percent inhibition-concentration data.
(§1) Results for assay i are expressed under the heading HSV-1, IC50 (μM). Results for assay ii are expressed under the heading HSV-1, EC50 (μM).

HSV-1 = test: Inhibition of Herpes Simplex Virus (HSV-1) Replication in Cell Culture (ELISA of glycoprotein C); assay type: cell-based, HSV-1 strain F or KOS; conditions: Human alphaherpesvirus 1; viral replication in BHK-21 cells, MOI 0.05 PFU/cell, 24 h, 37°
Description: ii) Inhibition of Herpes Simplex Virus (HSV-1) Replication in Cell Culture
Assay: BHK-21 cells clone 13 (ATCC CCL10) were incubated for two days in 850 cm^2 roller bottles (2×10^7 cells/bottle) with α-MEM medium (Gibco Canada Inc., Burlington, Ontario, Canada) supplemented with 8% (v/v) fetal bovine serum (FBS, Gibco Canada, Inc.). The cells were trypsinized and then 3,000 cells in 100 μL of fresh medium were transferred into each well of a 96-well microtiter plate. The cells were incubated at 37° for a period of 3 days to reach a density of 50,000 cells per well. The cells were washed twice with 100 μL of α-MEM supplemented with 2% heat inactivated FBS and incubated for 1-2 h in 100 μL of the same medium.
Thereafter, the cells were infected with HSV-1 strain F or KOS (multiplicity of infection=0.05 PFU/cell) in 50 μL of α-MEM supplemented with 2% heat inactivated FBS. Following one hour of virus absorption at 37°, the medium was removed and the cells were washed with α-MEM supplemented with 2% heat inactivated FBS (2×100 μL). The cells were incubated with or without 100 μL of the appropriate concentration of test reagent in α-MEM medium supplemented with 2% heat inactivated FBS. After 24 h of incubation at 37°, the extent of viral replication was determined by an ELISA assay; for instance, the following assay that detects the late glycoprotein C of HSV-1.
Cells were fixed in the microtiter plate with 100 μL of 0.063% glutaraldehyde in phosphate buffered saline for 30 min at room temperature. The microtiter plate was then washed once with casein blocking solution and blocked with 200 μL of the same solution for 1 h at room temperature. Thereafter, 100 μL of mAb C11 recognizing the glycoprotein C of HSV-1 (see E. Trybala et al., Journal of General Virology, 1994, 75, 743) was added to each well for 2 h at room temperature. The plate was washed three times with phosphate buffered saline containing 0.05% polyoxyethylene (20) sorbitan monooleate. The cells were incubated with 100 μL of sheep anti-mouse IgG horseradish peroxidase for 1 h at room temperature in the dark.
The plate was washed three times with 200 μL of the above-noted phosphate buffer saline preparation, and then once with 0.1 M sodium citrate (pH 4.5). Thereafter, 100 μL of orthophenylenediamine dihydrochloride (OPD, Gibco, Canada Inc.) was added to each well. The plate was agitated on a microplate shaker for 30 min in the dark. Color development was monitored at 450 nm using a microplate spectrophotometer.
SAS was used to calculate % inhibition of viral replication and to generate EC50 values.
as §1

T1 sequence (P10189 whole entry, looked up, stated change not applied): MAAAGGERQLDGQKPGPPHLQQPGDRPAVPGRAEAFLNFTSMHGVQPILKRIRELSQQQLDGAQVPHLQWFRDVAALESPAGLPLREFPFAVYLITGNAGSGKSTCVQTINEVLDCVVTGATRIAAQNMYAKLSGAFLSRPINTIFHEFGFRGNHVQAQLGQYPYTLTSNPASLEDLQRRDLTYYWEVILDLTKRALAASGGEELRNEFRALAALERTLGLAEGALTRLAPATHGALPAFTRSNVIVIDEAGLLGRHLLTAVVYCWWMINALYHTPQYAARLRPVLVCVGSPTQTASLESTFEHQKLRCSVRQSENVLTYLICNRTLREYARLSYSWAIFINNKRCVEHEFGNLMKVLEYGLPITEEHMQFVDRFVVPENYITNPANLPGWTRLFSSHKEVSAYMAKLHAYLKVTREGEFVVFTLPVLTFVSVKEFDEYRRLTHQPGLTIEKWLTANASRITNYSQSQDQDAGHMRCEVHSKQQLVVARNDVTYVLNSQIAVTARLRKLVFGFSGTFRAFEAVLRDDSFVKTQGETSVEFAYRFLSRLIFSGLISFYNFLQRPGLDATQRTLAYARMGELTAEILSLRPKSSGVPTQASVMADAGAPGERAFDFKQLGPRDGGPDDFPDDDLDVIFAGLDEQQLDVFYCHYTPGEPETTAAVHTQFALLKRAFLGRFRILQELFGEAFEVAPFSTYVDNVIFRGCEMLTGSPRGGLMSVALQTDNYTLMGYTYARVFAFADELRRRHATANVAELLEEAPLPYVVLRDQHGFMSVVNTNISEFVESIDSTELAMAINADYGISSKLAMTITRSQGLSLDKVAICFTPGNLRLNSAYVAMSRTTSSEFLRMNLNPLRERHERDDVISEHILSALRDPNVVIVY
T1 sequence (P10192 whole entry, stated change not applied, further chain): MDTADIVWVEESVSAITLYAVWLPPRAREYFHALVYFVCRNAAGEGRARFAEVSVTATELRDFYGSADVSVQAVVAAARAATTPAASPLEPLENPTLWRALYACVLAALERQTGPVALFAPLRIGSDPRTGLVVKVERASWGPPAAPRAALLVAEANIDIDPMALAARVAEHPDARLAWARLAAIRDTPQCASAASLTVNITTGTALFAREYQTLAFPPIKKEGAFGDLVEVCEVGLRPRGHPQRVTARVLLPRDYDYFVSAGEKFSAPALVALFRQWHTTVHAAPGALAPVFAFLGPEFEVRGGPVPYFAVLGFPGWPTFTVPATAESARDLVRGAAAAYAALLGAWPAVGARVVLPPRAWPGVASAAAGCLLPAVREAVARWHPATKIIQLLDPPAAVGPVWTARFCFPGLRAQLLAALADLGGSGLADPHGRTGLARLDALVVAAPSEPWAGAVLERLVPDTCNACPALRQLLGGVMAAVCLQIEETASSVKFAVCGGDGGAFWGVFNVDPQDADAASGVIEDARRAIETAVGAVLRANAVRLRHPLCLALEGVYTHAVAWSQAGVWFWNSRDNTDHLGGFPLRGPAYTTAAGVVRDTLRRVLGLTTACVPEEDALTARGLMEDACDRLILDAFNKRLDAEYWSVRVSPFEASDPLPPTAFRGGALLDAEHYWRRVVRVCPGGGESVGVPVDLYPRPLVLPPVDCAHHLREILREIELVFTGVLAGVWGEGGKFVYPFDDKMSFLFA
T1 sequence (P10236 whole entry, stated change not applied): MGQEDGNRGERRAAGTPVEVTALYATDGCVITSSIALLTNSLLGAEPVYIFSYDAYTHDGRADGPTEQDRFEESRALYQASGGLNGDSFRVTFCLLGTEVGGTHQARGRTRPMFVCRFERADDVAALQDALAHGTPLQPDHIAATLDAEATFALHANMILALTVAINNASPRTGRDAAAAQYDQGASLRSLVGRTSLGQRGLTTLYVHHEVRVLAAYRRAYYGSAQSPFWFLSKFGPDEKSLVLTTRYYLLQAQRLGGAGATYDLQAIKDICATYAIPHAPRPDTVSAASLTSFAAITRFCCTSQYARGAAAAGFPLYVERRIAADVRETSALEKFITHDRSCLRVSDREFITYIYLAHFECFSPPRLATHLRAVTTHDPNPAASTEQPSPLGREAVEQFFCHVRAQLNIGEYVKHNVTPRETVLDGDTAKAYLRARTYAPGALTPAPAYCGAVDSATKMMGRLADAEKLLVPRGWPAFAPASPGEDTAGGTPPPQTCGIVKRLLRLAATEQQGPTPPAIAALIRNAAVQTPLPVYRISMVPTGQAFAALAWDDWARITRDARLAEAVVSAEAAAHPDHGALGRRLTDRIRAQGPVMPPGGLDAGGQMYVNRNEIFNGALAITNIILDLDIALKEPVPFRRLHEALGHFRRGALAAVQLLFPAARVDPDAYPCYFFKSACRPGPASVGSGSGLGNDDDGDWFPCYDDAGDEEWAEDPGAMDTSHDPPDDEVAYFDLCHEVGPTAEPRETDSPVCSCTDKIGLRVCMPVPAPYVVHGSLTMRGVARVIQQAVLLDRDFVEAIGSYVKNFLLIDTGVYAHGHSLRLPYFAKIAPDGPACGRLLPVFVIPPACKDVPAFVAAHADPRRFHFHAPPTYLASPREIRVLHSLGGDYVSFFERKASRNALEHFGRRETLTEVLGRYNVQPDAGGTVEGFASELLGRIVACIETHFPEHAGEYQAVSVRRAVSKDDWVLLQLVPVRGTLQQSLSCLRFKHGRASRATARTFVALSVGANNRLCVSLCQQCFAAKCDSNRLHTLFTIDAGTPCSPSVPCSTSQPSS

| SMILES | IC50 [1] [nM] | EC50 (HSV-1) [nM] |
| --- | --- | --- |
| CCCCC(C(=O)OCC)C(=O)c1cccc(NC(=O)c2ccc(Cl)cc2O)c1 (stereo not drawn) [Entry 1, Ethyl α-butyl-3-{(4chloro2-hydroxybenzoyl)amino}-β-oxobenzenepropanoate] | 1000 to 100000 | 1000 to 100000 |
| CC(=O)c1cccc(NC(=O)c2ccc(Cl)cc2O)c1 [Entry 2] | 1000 to 100000 | 1000 to 100000 |
| CCOC(=O)CC(=O)c1cccc(NC(=O)c2ccc(Cl)cc2O)c1 [Entry 3] | 1000 to 100000 | 1000 to 100000 |
| CCCC(=O)c1cccc(NC(=O)c2ccc(Cl)cc2O)c1 [Entry 4] | 1000 to 100000 | 1000 to 100000 |
| O=C(Cc1ccccc1)c1cccc(NC(=O)c2ccc(Cl)cc2O)c1 [Entry 5] | 1000 to 100000 | 1000 to 100000 |
| O=C(Nc1cccc(C(=O)C2CCCCC2)c1)c1ccc(Cl)cc1O [Entry 6] | 1000 to 100000 | 1000 to 100000 |
| O=C(CCc1ccccc1)c1cccc(NC(=O)c2ccc(Cl)cc2O)c1 [Entry 7] | 1000 to 100000 | – |
| O=C(OCc1ccccn1)c1cccc(NC(=O)c2ccc(Cl)cc2O)c1 [Entry 8] | < 1000 | 1000 to 100000 |
| O=C(OCc1ccccc1)c1cccc(NC(=O)c2ccc(Cl)cc2O)c1 [Entry 9] | < 1000 | – |
| O=C(Nc1cccc(C(=O)N2CCCCC2)c1)c1ccc(Cl)cc1O [Entry 10] | > 100000 | < 1000 |
| CN(CCc1ccccn1)C(=O)c1cccc(NC(=O)c2ccc(Cl)cc2O)c1 [Entry 11] | > 100000 | – |
| CCCCN(C)C(=O)c1cccc(NC(=O)c2ccc(Cl)cc2O)c1 [Entry 12, N-Butyl-N-methyl-3-{(4-chloro-2-hydroxybenzoyl)amino)benzamide] | > 100000 | < 1000 |
| O=C(NCC1CCCCC1)c1cccc(NC(=O)c2ccc(Cl)cc2O)c1 [Entry 13] | < 1000 | 1000 to 100000 |
| O=C(NCCc1ccccn1)c1cccc(NC(=O)c2ccc(Cl)cc2O)c1 [Entry 14] | 1000 to 100000 | 1000 to 100000 |
| O=C(NCc1ccccc1)c1cccc(NC(=O)c2ccc(Cl)cc2O)c1 [Entry 15] | < 1000 | 1000 to 100000 |
| CCCCNC(=O)c1cccc(NC(=O)c2ccc(Cl)cc2O)c1 [Entry 16] | 1000 to 100000 | 1000 to 100000 |
| O=C(NCc1ccccn1)c1cccc(NC(=O)c2ccc(Cl)cc2O)c1 [Entry 17] | < 1000 | 1000 to 100000 |
| O=C(NC1CCCCC1)c1cccc(NC(=O)c2ccc(Cl)cc2O)c1 [Entry 18] | 1000 to 100000 | < 1000 |
| O=C(NCc1ccncc1)c1cccc(NC(=O)c2ccc(Cl)cc2O)c1 [Entry 19] | 1000 to 100000 | – |
| CCCCCC(=O)c1cccc(NC(=O)c2cccc(Cl)c2O)c1 [Entry 101] | 1000 to 100000 | 1000 to 100000 |
| Cc1ccc(C(=O)Nc2cccc(C(=O)NCc3ccccc3)c2)c(O)c1 [Entry 102] | < 1000 | – |
| COc1ccc(C(=O)Nc2cccc(C(=O)NCc3ccccc3)c2)c(O)c1 [Entry 103] | < 1000 | – |
| [N-]=[N+]=Nc1ccc(C(=O)Nc2cccc(C(=O)NCc3ccccc3)c2)c(O)c1 [Entry 104] | < 1000 | – |
| Nc1ccccc1C(=O)Nc1cccc(C(=O)NCc2ccccc2)c1 [Entry 105] | > 100000 | – |
| [N-]=[N+]=Nc1cc(O)c(C(=O)Nc2cccc(C(=O)NCc3ccccc3)c2)cc1I [Entry 106] | < 1000 | – |
| Nc1cc(Cl)ccc1C(=O)Nc1cccc(C(=O)NCc2ccccc2)c1 [Entry 107] | > 100000 | – |
| Nc1ccc(C(=O)Nc2cccc(C(=O)NCc3ccccc3)c2)c(O)c1 [Entry 108] | 1000 to 100000 | – |

Reference: patent publication US6323202A, “HSV primase inhibitors” (Boehringer Ingelheim (Canada) Ltd., priority 2000, dated 2001)
